Laboratory results reported in US5481013A, “Carboxylic acid derivatives” (Ciba-Geigy Corporation, priority 1992, dated 1996).

Legend:
Assay type in all cases: in vivo
[1] = system: Panonychus ulmi (OP- and carb.- resistant); experiment: Activity against Panonychus ulmi (OP- and carb.- resistant); conditions: 336 h, 400 ppm spray on apple seedlings, evaluated after 14 days, read-out: percentage reduction in population (% activity)
Experimental: Apple seedlings are populated with adult females of Panonychus ulmi. After seven days, the infested plants are sprayed to drip point with an aqueous emulsion comprising 400 ppm of the test compound and grown in the greenhouse. The test is evaluated after 14 days. The percentage reduction in population (% activity) is determined by comparing the number of dead spider mites on the treated plants with those on the untreated plants. […] An activity of over 80% is shown, in particular, by compound Nos. 1.01, 2.01, 2.07, 2.08, 2.10, 2.12 to 2.16, 2.22, 2.23, 2.26, 3.01, 4.01, 4.02, 4.06, 5.01 to 5.03, 5.05, 5.06, 5.08, 5.10, 5.11, 5.15, 5.16 and 5.20 to 5.25.

Nephotettix cincticeps = experiment: Activity against Nephotettix cincticeps (spray on rice plants); conditions: 504 h, 400 ppm spray on rice plants, larvae in stages 2 and 3, evaluated 21 days later, read-out: percentage reduction in population (% activity)
Experimental: Rice plants are treated with a spray mixture prepared with an aqueous emulsion and comprising 400 ppm of the active ingredient. After the spray coating has dried on, the rice plants are populated with leaf hopper larvae in stages 2 and 3. The test is evaluated 21 days later. The percentage reduction in population (% activity) is determined by comparing the number of surviving leaf hoppers on the treated plants with those on the untreated plants.

Tetranychus urticae = experiment: Activity against Tetranychus urticae; conditions: 144 h, 400 ppm spray on young bean plants, mixed population, 6 days at 25° C, read-out: percentage reduction in population (% activity)
Experimental: Young bean plants are populated with a mixed population of Tetranychus urticae and, after 1 day, sprayed with a spray mixture prepared with an aqueous emulsion and comprising 400 ppm of the active ingredient. The plants are subsequently incubated for 6 days at 25° C and then evaluated. The percentage reduction in population (% activity) is determined by comparing the number of dead eggs, larvae and adults on the treated plants with those on the untreated ones.

Myzus persicae = experiment: Systemic activity against Myzus persicae; conditions: roots of pea seedlings in 400 ppm spray mixture, 20° C., evaluated after 3 and 6 days, read-out: percentage reduction in population (% activity)
Experimental: Pea seedlings are infected with Myzus persicae, the roots of the plants are then placed into a spray mixture comprising 400 ppm of the active ingredient, and the plants are incubated at 20° C. The test is evaluated after 3 and 6 days. The percentage reduction in population (% activity) is determined by comparing the number of dead aphids on the treated plants with those on the untreated plants.

Dermanyssus gallinae = experiment: Activity against Dermanyssus gallinae; conditions: 72 h, 10 ppm solution, mites in different development stages, after 3 days
Experimental: 2 to 3 ml of a solution comprising 10 ppm of active ingredient and approximately 200 mites in different development stages are placed into a glass container which is open at the top. The container is then sealed with a cottonwool ball, shaken for 10 minutes until the mites are wetted completely, and then briefly turned over so that the remaining test solution can be absorbed by the cottonwool. After 3 days, the mortality of the mites is determined by counting the dead individuals; it is given as a percentage.

O=C(CC=C(F)F)OCCOc1ccc(Oc2ccccc2)cc1 [Compound 1.01, 2-(4-phenoxyphenoxy)ethyl-4,4-difluorobut-3-enoate]
> 80%: activity at 400 ppm [1] | activity at 400 ppm (Nephotettix cincticeps) | activity at 400 ppm (Tetranychus urticae) | activity at 400 ppm (Myzus persicae) | mortality at 10 ppm (Dermanyssus gallinae)

O=C(CCCCCC=C(F)F)OCCOc1ccc(Oc2ccccc2)cc1 [Compound 3.01]
> 80%: activity at 400 ppm [1] | activity at 400 ppm (Nephotettix cincticeps) | activity at 400 ppm (Tetranychus urticae)
